The molecules below were run against T1, human mGluR2 receptor (Homo sapiens, UniProt Q14416) (assay: [35S]GTPγS binding assay (GTPγS-PAM): positive allosteric modulation in presence of glutamate at EC25, membranes from transfected CHO cells). Details: in presence of mGluR2 agonist glutamate at predetermined EC25 concentration, averages of duplicate values of 11-concentration response curves, read-out: GTPgS - hR2 PAM pEC50 (converted).
T1 construct: expressed in transfected cells; host or cells: CHO cells (membrane preparation)
T1 sequence (Q14416 19-872): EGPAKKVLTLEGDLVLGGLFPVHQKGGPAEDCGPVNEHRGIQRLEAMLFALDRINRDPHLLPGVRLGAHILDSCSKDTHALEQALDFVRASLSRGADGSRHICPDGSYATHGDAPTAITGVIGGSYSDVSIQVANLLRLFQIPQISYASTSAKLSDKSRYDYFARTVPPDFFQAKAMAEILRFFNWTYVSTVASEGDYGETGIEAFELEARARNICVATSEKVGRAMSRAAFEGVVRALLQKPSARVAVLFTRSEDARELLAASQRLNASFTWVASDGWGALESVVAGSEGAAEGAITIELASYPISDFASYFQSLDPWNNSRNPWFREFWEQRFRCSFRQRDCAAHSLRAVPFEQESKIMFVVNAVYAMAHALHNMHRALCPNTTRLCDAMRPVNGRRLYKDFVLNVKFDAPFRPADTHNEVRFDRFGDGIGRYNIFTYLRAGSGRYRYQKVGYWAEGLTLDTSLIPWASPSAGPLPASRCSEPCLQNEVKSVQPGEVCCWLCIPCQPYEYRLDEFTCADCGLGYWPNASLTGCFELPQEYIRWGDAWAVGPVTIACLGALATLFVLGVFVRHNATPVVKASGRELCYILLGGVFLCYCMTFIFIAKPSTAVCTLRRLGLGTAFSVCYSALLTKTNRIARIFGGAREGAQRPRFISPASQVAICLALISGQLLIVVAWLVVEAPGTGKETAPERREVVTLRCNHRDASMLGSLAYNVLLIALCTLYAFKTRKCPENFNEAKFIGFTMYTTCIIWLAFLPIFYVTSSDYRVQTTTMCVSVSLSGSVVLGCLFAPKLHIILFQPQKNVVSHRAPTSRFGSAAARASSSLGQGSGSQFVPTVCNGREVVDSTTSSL
Format: biochemical
Source text: The compounds provided in the present invention are positive allosteric modulators of mGluR2. These compounds appear to potentiate glutamate responses by binding to an allosteric site other than the glutamate binding site. The response of mGluR2 to a concentration of glutamate is increased when compounds of Formula (I) are present. Compounds of Formula (I) are expected to have their effect substantially at mGluR2 by virtue of their ability to enhance the function of the receptor. The behaviour of positive allosteric modulators tested at mGluR2 using the [^35S]GTPγS binding assay method described below and which is suitable for the identification of such compounds, and more particularly the compounds according to Formula (I), are shown in Table 4.
[^35S]GTPγS Binding Assay
The [^35S]GTPγS binding is a functional membrane-based assay used to study G-protein coupled receptor (GPCR) function whereby incorporation of a non-hydrolysable form of GTP, [^35S]GTPγS (guanosine 5′-triphosphate, labelled with […] ^35S), is measured. The G-protein o subunit catalyzes the exchange of guanosine 5′-diphosphate (GDP) by guanosine triphosphate (GTP) and on activation of the GPCR by an agonist, [^35S]GTPγS, becomes incorporated and cannot be cleaved to continue the exchange cycle (Harper (1998) Current Protocols in Pharmacology 2.6.1-10, John Wiley & Sons, Inc.). […] Here we describe the use of the [^35S]GTPγS binding assay using membranes from cells transfected with the human mGluR2 receptor and adapted from Schaffhauser et al ((2003) Molecular Pharmacology 4:798-810) for the detection of the positive allosteric modulation (PAM) properties of the compounds of this invention.
CHO-cells were cultured to pre-confluence and stimulated with 5 mM butyrate for 24 hours, prior to washing in PBS, and then collection by scraping in homogenisation buffer (50 mM Tris-HCl buffer, pH 7.4, 4° C.). Cell lysates were homogenized briefly (15 s) using an ultra-turrax homogenizer. The homogenate was centrifuged at 23 500×g for 10 minutes and the supernatant discarded. The pellet was resuspended in 5 mM Tris-HCl, pH 7.4 and centrifuged again (30 000×g, 20 min, 4° C.). The final pellet was resuspended in 50 mM HEPES, pH 7.4 and stored at −80° C. in appropriate aliquots before use. Protein concentration was determined by the Bradford method (Bio-Rad, USA) with bovine serum albumin as standard.
Measurement of mGluR2 positive allosteric modulators in membranes containing human mGluR2 was performed using frozen membranes that were thawed and briefly homogenised prior to pre-incubation in 96-well microplates (15 μg/assay well, 30 minutes, 30° C.) in assay buffer (50 mM HEPES pH 7.4, 100 mM NaCl, 3 mM MgCl2, 50 μM GDP, 10 μg/ml saponin,) with increasing concentrations of positive allosteric modulator (from 0.3 nM to 50 μM) and either a minimal pre-determined concentration of glutamate (PAM assay), or no added glutamate. For the PAM assay, membranes were pre-incubated with glutamate at EC25 concentration, i.e. a concentration that gives 25% of the maximal response glutamate, and is in accordance to published data (Pin et al. (1999) Eur. J. Pharmacol. 375:277-294). After addition of [^35S]GTPγS (0.1 nM, f.c.) to achieve a total reaction volume of 200 μl, microplates were shaken briefly and further incubated to allow [^35S]GTPγS incorporation on activation (30 minutes, 30° C.). The reaction was stopped by rapid vacuum filtration over glass-fibre filter plates (Unifilter 96-well GF/B filter plates, Perkin-Elmer, Downers Grove, USA) microplate using a 96-well plate cell harvester (Filtermate, Perkin-Elmer, USA), and then by washing three times with 300 μl of ice-cold wash buffer (Na2PO4.2H2O 10 mM, NaH2PO4.H2O 10 mM, pH=7.4). Filters were then air-dried, and 40 μl of liquid scintillation cocktail (Microscint-O) was added to each well, and membrane-bound [^35S]GTPγS was measured in a 96-well scintillation plate reader (Top-Count, Perkin-Elmer, USA). […]

Row | SMILES | EC50 [nM]
1 | CC(=O)CCNc1ccc(-c2ccn(CCC(C)C)c(=O)c2C#N)cc1 [1-180] | 316
2 | CC(=O)NCCNc1ccc(-c2ccn(CCC(C)C)c(=O)c2C#N)cc1 [1-182] | 3160
3 | COc1cc(-c2ccn(CCC(C)C)c(=O)c2C#N)ccc1NC(C)C [1-183] | 251
4 | COc1cc(-c2ccn(CCC(C)C)c(=O)c2C#N)ccc1CNC(C)=O [1-184] | 3980
5 | COCCN(C)c1ccc(-c2ccn(CCC(C)C)c(=O)c2C#N)cc1OC [1-185] | 1000
6 | CC(C)CCn1ccc(-c2ccc(NC3CC3)cc2)c(C#N)c1=O [1-187] | 126
7 | CC(C)CCn1ccc(-c2ccc(NC3CCCCC3)cc2)c(C#N)c1=O [1-188] | 50.1
8 | CC(C)CCn1ccc(-c2ccc(Nc3ccccc3)cc2)c(C#N)c1=O [1-193] | 5010
9 | CC(C)CCn1ccc(-c2ccc(NCc3ccccc3)cc2)c(C#N)c1=O [1-194] | 63.1
10 | CC(C)CCn1ccc(-c2ccc(N(C)c3ccccc3)cc2)c(C#N)c1=O [1-195] | 126
11 | CC(C)CCn1ccc(-c2ccc(N(C)Cc3ccccc3)cc2)c(C#N)c1=O [1-196] | 39.8
12 | CC(C)CCn1ccc(-c2ccc(CN(C)Cc3ccc(F)cc3)cc2)c(C#N)c1=O [1-197] | 251
13 | CC(C)CCn1ccc(-c2ccc(CNCc3ccccc3F)cc2)c(C#N)c1=O [1-198] | 1260
14 | CC(=O)Nc1ccc(-c2ccn(CCC(C)C)c(=O)c2C#N)cc1F [1-201] | 3980
15 | CC(C)CCn1ccc(-c2ccc(NCc3ccc(OC(F)(F)F)cc3)cc2)c(C#N)c1=O [1-205] | 251
16 | CC(C)CCn1ccc(-c2ccc(Nc3ccncc3)cc2)c(C#N)c1=O [1-208] | 1260
17 | CC(C)CCn1ccc(-c2ccc(NCc3cccnc3)cc2)c(C#N)c1=O [1-209] | 1260
18 | Cc1ccc(-c2ccn(CCC(C)C)c(=O)c2C#N)cc1[N+](=O)[O-] [1-214] | 794
19 | CC(C)CCn1ccc(-c2ccc(NC3CCS(=O)(=O)CC3)cc2)c(C#N)c1=O [1-217] | 2510
20 | CC(C)CCn1ccc(-c2ccc(N3CCCC3)cc2)c(C#N)c1=O [1-218] | 200

Row | SMILES | EC50 [nM]
21 | CC(C)CCn1ccc(-c2ccc(N3CCCCC3)cc2)c(C#N)c1=O [1-219] | 200
22 | COC1CCN(c2ccc(-c3ccn(CCC(C)C)c(=O)c3C#N)cc2)CC1 [1-221] | 398
23 | CC(=O)N1CCN(c2ccc(-c3ccn(CCC(C)C)c(=O)c3C#N)cc2)CC1 [1-231] | 1580
24 | CC(C)CCn1ccc(-c2ccc(N3CCN(c4ccccc4)CC3)cc2)c(C#N)c1=O [1-233] | 631
25 | CC(C)CCn1ccc(-c2ccc(N3CCN(c4ccncc4)CC3)cc2)c(C#N)c1=O [1-234] | 1260
26 | CC(C)CCn1ccc(-c2ccc(-n3ccnn3)cc2)c(C#N)c1=O [1-236] | 2000
27 | CC(C)CCn1ccc(-c2ccc(N3Cc4ccccc4C3)cc2)c(C#N)c1=O [1-237] | 398
28 | COC(=O)c1cccc(-c2ccn(CCC(C)C)c(=O)c2C#N)c1 [1-242] | 3980
29 | CC(C)CCn1ccc(-c2ccc(C3(C(N)=O)CC3)cc2)c(C#N)c1=O [1-246] | 3980
30 | CC(C)CCn1ccc(-c2ccc(Cn3ccnc3)cc2)c(C#N)c1=O [1-248] | 3160
31 | CC(C)CCn1ccc(-c2ccc(N3CCCC3=O)cc2)c(C#N)c1=O [1-249] | 3980
32 | CC(C)CCn1ccc(-c2ccc(-c3cnco3)cc2)c(C#N)c1=O [1-250] | 1580
33 | CC(C)CCn1ccc(-c2ccc3c(c2)OCCO3)c(C#N)c1=O [1-253] | 501
34 | CC(C)CCn1ccc(-c2ccc(CSc3ccncc3)cc2)c(C#N)c1=O [1-258] | 316
35 | CC(C)CCn1ccc(-c2ccc3sccc3c2)c(C#N)c1=O [1-259] | 200
36 | CC(C)CCn1ccc(CCc2ccccc2)c(C#N)c1=O [1-260] | 1260
37 | CC(C)CCn1ccc(C=Cc2ccccc2)c(C#N)c1=O [1-261] | 200
38 | CC(C)CCn1ccc(CCc2cccc(N(C)C)c2)c(C#N)c1=O [1-262] | 1580
39 | CC(C)CCn1ccc(CCc2ccc(N(C)C)cc2)c(C#N)c1=O [1-263] | 1000
